The target in this assay is T1, APOL1 (Homo sapiens, UniProt O14791).
T1 sequence (O14791 1-398 S342G/I384M): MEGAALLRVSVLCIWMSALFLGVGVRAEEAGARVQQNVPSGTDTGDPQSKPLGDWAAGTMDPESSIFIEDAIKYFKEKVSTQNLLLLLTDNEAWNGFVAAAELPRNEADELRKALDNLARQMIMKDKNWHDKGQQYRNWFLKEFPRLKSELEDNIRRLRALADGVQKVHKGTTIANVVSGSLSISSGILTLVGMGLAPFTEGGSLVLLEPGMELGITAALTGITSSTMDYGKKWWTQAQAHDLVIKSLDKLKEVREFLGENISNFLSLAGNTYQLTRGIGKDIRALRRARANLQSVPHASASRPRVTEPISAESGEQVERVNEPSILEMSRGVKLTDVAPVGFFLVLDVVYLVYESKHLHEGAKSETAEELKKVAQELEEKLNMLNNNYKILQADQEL
Put plainly: MultiTox-Fluor Multiplex Cytotoxicity Assay in tet-inducible APOL1 T-REx-HEK293 cells (cell rescue, ratio of dead to live cells). The assay is classed as cell-based. The following applies: tet-inducible transgenic APOL1 T-REx-HEK293 cell lines, 50 ng/mL tet, 24 hours; read-out: IP50 (i.e., IC50 for cell proliferation). The gist of the method:
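T-REx-HEK293 cells with tet-inducible APOL1 were treated with compound (10 μM top, 10-point 3-fold dilution, duplicate) plus 50 ng/mL tetracycline for 24 h at 37° C, in DMEM with 2% tet-free FBS. MultiTox-Fluor protease signals gave a dead/live ratio, normalized to no tet (100% viability) and tet alone (0%).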

The record followed here is patent US20250171459A1, “2-METHYL-4',5'-DIHYDROSPIRO[PIPERIDINE-4,7'-THIENO[2,3-C]PYRAN] DERIVATIVES AS INHIBITORS OF APOL1 AND METHODS OF USING SAME” (Vertex Pharmaceuticals Incorporated, priority 2022, published 2025).

Molecules are shown by their SMILES.

Regarding `C[C@H]1C[C@@]2(CCN1Cc1cnn(C[C@H](O)CO)c1)OCCc1c2sc(C(F)(F)F)c1CO` [Compound 899], the IC50 was in the range of 100 to 500 nM.
The result for `CCNC(=O)CCn1cc(CN2CC[C@]3(C[C@@H]2C)OCCc2c3sc(C(F)(F)F)c2CO)cn1` [Compound 900] reads below 100 nM.
With `CNC(=O)Cn1cc(CN2CC[C@]3(C[C@@H]2C)OCCc2c3sc(C(F)(F)F)c2CO)cn1` [Compound 901], the IC50 was below 100 nM.
The result for `C[C@H]1C[C@@]2(CCN1Cc1cnn(Cc3cnccn3)c1)OCCc1c2sc(C(F)(F)F)c1CO` [Compound 902] reads below 100 nM.
Consider `C[C@H]1C[C@@]2(CCN1Cc1cnn(CC(=O)NC3CC3)c1)OCCc1c2sc(C(F)(F)F)c1CO` [Compound 903], for which the IC50 was below 100 nM.
The result for `CCN(CC)C(=O)Cn1cc(CN2CC[C@]3(C[C@@H]2C)OCCc2c3sc(C(F)(F)F)c2CO)cn1` [Compound 904] reads below 100 nM; that for `C[C@H]1C[C@@]2(CCN1Cc1cnn(CC3CCOCC3)c1)OCCc1c2sc(C(F)(F)F)c1CO` [Compound 905], below 100 nM.
With `COCCn1cc(CN2CC[C@]3(C[C@@H]2C)OCCc2c3sc(C(F)(F)F)c2CO)cn1` [Compound 906] the figure was below 100 nM.
For the molecule `C[C@H]1C[C@@]2(CCN1Cc1cnn(C3CS(=O)(=O)C3)c1)OCCc1c2sc(C(F)(F)F)c1CO` [Compound 907], the IC50 was below 100 nM.
The result for `C[C@@H](CO)Cn1cc(CN2CC[C@]3(C[C@@H]2C)OCCc2c3sc(C(F)(F)F)c2CO)cn1` [Compound 908] reads below 100 nM; that for `CC(C)NC(=O)Cn1cc(CN2CC[C@]3(C[C@@H]2C)OCCc2c3sc(C(F)(F)F)c2CO)cn1` [Compound 909], below 100 nM.
With `C[C@H]1C[C@@]2(CCN1Cc1cnn(CC3(C)COC3)c1)OCCc1c2sc(C(F)(F)F)c1CO` [Compound 910] the figure was 100 to 500 nM; with `C[C@H]1C[C@@]2(CCN1Cc1cnn(C3CCS(=O)(=O)C3)c1)OCCc1c2sc(C(F)(F)F)c1CO` (stereo partly drawn) [Compound 911, [(2′S, 7R)-1′-[[1-(1,1-dioxothiolan-3-yl)pyrazol-4-yl]methyl]-2′-methyl-2-(trifluoromethyl)spiro[4,5-dihydrothieno[2,3-c]pyran-7,4′-piperidine]-3-yl]methanol], below 100 nM.
With `Cc1cnc(Cn2cc(CN3CC[C@]4(C[C@@H]3C)OCCc3c4sc(C(F)(F)F)c3CO)cn2)cn1` [Compound 912] the figure was below 100 nM.
Turning to `C[C@H]1C[C@@]2(CCN1Cc1cnn(CC(=O)NCC(F)F)c1)OCCc1c2sc(C(F)(F)F)c1CO` [Compound 913], the IC50 is below 100 nM.
Consider `C[C@H]1C[C@@]2(CCN1Cc1cnn(Cc3nnnn3C)c1)OCCc1c2sc(C(F)(F)F)c1CO` [Compound 914], for which the IC50 was below 100 nM.
As to `C[C@H]1C[C@@]2(CCN1Cc1cnn(CC3(CO)COC3)c1)OCCc1c2sc(C(F)(F)F)c1CO` [Compound 915], the IC50 was below 100 nM.
The result for `CNS(=O)(=O)CCn1cc(CN2CC[C@]3(C[C@@H]2C)OCCc2c3sc(C(F)(F)F)c2CO)cn1` [Compound 916] reads below 100 nM.
Regarding `C[C@H]1C[C@@]2(CCN1Cc1cnn(CC3CCNC(=O)C3)c1)OCCc1c2sc(C(F)(F)F)c1CO` (stereo partly shown) [Compound 917], the IC50 is below 100 nM.
With `C[C@H]1C[C@@]2(CCN1Cc1cnn(C[C@H](O)CC#N)c1)OCCc1c2sc(C(F)(F)F)c1CO` [Compound 918] the figure was below 100 nM; with `C[C@H]1C[C@@]2(CCN1Cc1cnn(Cc3nnco3)c1)OCCc1c2sc(C(F)(F)F)c1CO` [Compound 919], below 100 nM.
The result for `C[C@H]1C[C@@]2(CCN1Cc1cnn(Cc3nnc[nH]3)c1)OCCc1c2sc(C(F)(F)F)c1CO` [Compound 920] reads 100 to 500 nM.
`C[C@H]1C[C@@]2(CCN1Cc1cnn(CC3CNC(=O)C3)c1)OCCc1c2sc(C(F)(F)F)c1CO` (stereo partly shown) [Compound 921]: the IC50 is below 100 nM.
With `C[C@H]1C[C@@]2(CCN1Cc1cnn(C[C@@H]3CCC(=O)N3)c1)OCCc1c2sc(C(F)(F)F)c1CO` [Compound 922] the figure was below 100 nM; with `Cc1nnc(Cn2cc(CN3CC[C@]4(C[C@@H]3C)OCCc3c4sc(C(F)(F)F)c3CO)cn2)o1` [Compound 923], below 100 nM; with `C[C@H]1C[C@@]2(CCN1Cc1cnn(CS(=O)(=O)N(C)C)c1)OCCc1c2sc(C(F)(F)F)c1CO` [Compound 924], below 100 nM.
With `CC(c1nnc[nH]1)n1cc(CN2CC[C@]3(C[C@@H]2C)OCCc2c3sc(C(F)(F)F)c2CO)cn1` (stereo partly shown) [Compound 925] the figure was 100 to 500 nM; with `C[C@H]1C[C@@]2(CCN1Cc1cnn(CCC(N)=O)c1)OC[C@@H](O)c1cc(C(F)(F)F)sc12` [Compound 926], below 100 nM.
Consider `C[C@H]1C[C@@]2(CCN1Cc1cnn(CCCC(N)=O)c1)OC[C@@H](O)c1cc(C(F)(F)F)sc12` [Compound 927], for which the IC50 was below 100 nM.
Turning to `C[C@H]1C[C@@]2(CCN1Cc1cnn(CC(=O)NC3CC3)c1)OC[C@@H](O)c1cc(C(F)(F)F)sc12` [Compound 928], the IC50 is below 100 nM.
The result for `C=C(CO)n1cc(CN2CC[C@]3(C[C@@H]2C)OCCc2c3sc(C(F)(F)F)c2CO)cn1` [Compound 929, 2-[4-[[(2′S,7R)-3-(hydroxymethyl)-2′-methyl-2-(trifluoromethyl)spiro[4,5-dihydrothieno[2,3-c]pyran-7,4′-piperidine]-1′-yl]methyl]pyrazol-1-yl]prop-2-en-1-ol] reads below 100 nM; that for `C[C@H]1C[C@@]2(CCN1Cc1cnn(CC(O)C3(O)CCOCC3)c1)OCCc1c2sc(C(F)(F)F)c1CO` (stereo partly drawn) [Compound 930, 4-[1-hydroxy-2-[4-[[(2′S, 7R)-3-(hydroxymethyl)-2′-methyl-2-(trifluoromethyl)spiro[4,5-dihydro-thieno[2,3-c]pyran-7,4′-piperidine]-1′-yl]methyl]pyrazol-1-yl]ethyl]tetrahydropyran-4-ol], below 100 nM.
Turning to `CC(O)Cn1cc(CN2CC[C@]3(C[C@@H]2C)OCCc2c3sc(C(F)(F)F)c2CO)cn1` (stereo partly shown) [Compound 931], the IC50 is below 100 nM.
With `C[C@H]1C[C@@]2(CCN1Cc1cnn(CC(O)C(N)=O)c1)OCCc1c2sc(C(F)(F)F)c1CO` (stereo partly shown) [Compound 932] the figure was below 100 nM.
In the case of `C[C@H]1C[C@@]2(CCN1Cc1cnn(CC(O)C3(O)COC3)c1)OCCc1c2sc(C(F)(F)F)c1CO` (stereo partly shown) [Compound 933], the IC50 is below 100 nM.
As for `C[C@H]1C[C@@]2(CCN1Cc1cnn(CC(O)CO)c1)OCCc1c2sc(C(F)(F)F)c1CO` (stereo partly shown) [Compound 934], the IC50 is below 100 nM.
The result for `C[C@H]1C[C@@]2(CCN1Cc1cnn(CC(O)C3(CO)CCC3)c1)OCCc1c2sc(C(F)(F)F)c1CO` (stereo partly shown) [Compound 935] reads below 100 nM; that for `C[C@H]1C[C@@]2(CCN1Cc1cnn(CC(C)(O)CO)c1)OCCc1c2sc(C(F)(F)F)c1CO` (stereo partly shown) [Compound 936], below 100 nM; that for `C[C@H]1C[C@@]2(CCN1Cc1cnn(CC(O)c3ccc(F)cn3)c1)OCCc1c2sc(C(F)(F)F)c1CO` (stereo partly shown) [Compound 937], below 100 nM.
The result for `C[C@H]1C[C@@]2(CCN1Cc1cnn(CC(O)CC(C)(O)C3CC3)c1)OCCc1c2sc(C(F)(F)F)c1CO` (stereo partly shown) [Compound 938] reads below 100 nM.
With `C[C@H]1C[C@@]2(CCN1Cc1cnn(CC(O)c3ccccn3)c1)OCCc1c2sc(C(F)(F)F)c1CO` (stereo partly shown) [Compound 939] the figure was below 100 nM.
On to `C[C@H]1C[C@@]2(CCN1Cc1cnn(CC(O)C3(O)CCC3)c1)OCCc1c2sc(C(F)(F)F)c1CO` (stereo partly shown) [Compound 940], for which the IC50 was below 100 nM.
Take `C[C@H]1C[C@@]2(CCN1Cc1cnn(CC(O)C3(O)CCOC3)c1)OCCc1c2sc(C(F)(F)F)c1CO` (stereo partly shown) [Compound 941]: the IC50 was below 100 nM.
The result for `C[C@H]1C[C@@]2(CCN1Cc1cnn(CC(O)CC3(O)CCOC3)c1)OCCc1c2sc(C(F)(F)F)c1CO` (stereo partly shown) [Compound 942] reads below 100 nM.
The result for `C[C@H]1C[C@@]2(CCN1Cc1cnn(CC3(O)CCOCC3)c1)OCCc1c2sc(C(F)(F)F)c1CO` [Compound 943, 4-[[4-[[(2′S, 7R)-3-(hydroxymethyl)-2′-methyl-2-(trifluoromethyl)spiro[4,5-dihydrothieno[2,3-c]pyran-7,4′-piperidine]-1′-yl]methyl]pyrazol-1-yl]methyl]tetrahydropyran-4-ol] reads below 100 nM; that for `C[C@H]1C[C@@]2(CCN1Cc1cnn(CC(O)C3CCC3)c1)OCCc1c2sc(C(F)(F)F)c1CO` (stereo partly shown) [Compound 944], below 100 nM; that for `C[C@H]1C[C@@]2(CCN1Cc1cnn(CC(O)CC3(O)COC3)c1)OCCc1c2sc(C(F)(F)F)c1CO` (stereo partly shown) [Compound 945], below 100 nM.
The result for `C[C@H]1C[C@@]2(CCN1Cc1cnn(CC(O)C3CCCOC3)c1)OCCc1c2sc(C(F)(F)F)c1CO` (stereo partly shown) [Compound 946] reads below 100 nM; that for `C[C@H]1C[C@@]2(CCN1Cc1cnn(CC3(O)CCS(=O)(=O)CC3)c1)OCCc1c2sc(C(F)(F)F)c1CO` [Compound 947], below 100 nM; that for `C[C@H]1C[C@@]2(CCN1Cc1cnn(CC3(O)CCC3)c1)OCCc1c2sc(C(F)(F)F)c1CO` [Compound 948], below 100 nM.
Take `C[C@H]1C[C@@]2(CCN1Cc1cnn(CC(O)CC(C)(C)O)c1)OCCc1c2sc(C(F)(F)F)c1CO` (stereo partly shown) [Compound 949]: the IC50 is below 100 nM.
With `C[C@H]1C[C@@]2(CCN1Cc1cnn(CC(O)CC3(C#N)CC3)c1)OCCc1c2sc(C(F)(F)F)c1CO` (stereo partly shown) [Compound 950] the figure was below 100 nM.
